Measurements reported in ChEMBL document CHEMBL1201862, “PubChem BioAssay data set” (2004).
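Each compound was tested at five concentrations against cells in 96-well plates for 48 hours. Abbreviation: GI50, concentration required for 50% inhibition of growth.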 Active and inactive are the calls of the source. No stated cut-off is given here; in the data, active = GI50 up to about 1.1 µM and inactive = higher.

Key:
Assay in all cases: NCI anticancer screen, dose series, 48 h
A498 = tested on: A498
NCI-H460 = tested on: NCI-H460
SN12C = tested on: SN12C
A549 = tested on: A549
SK-MEL-28 = tested on: SK-MEL-28
TK-10 = tested on: TK-10
SK-OV-3 = tested on: SK-OV-3
UACC-257 = tested on: UACC-257
EKVX = tested on: EKVX
UACC-62 = tested on: UACC-62
CAKI-1 = tested on: CAKI-1
HOP-18 = tested on: HOP-18
M19-MEL = tested on: M19-MEL
KM12 = tested on: KM12
HT-29 = tested on: HT-29
OVCAR-4 = tested on: OVCAR-4
IGROV-1 = tested on: IGROV-1
SNB-78 = tested on: SNB-78
HOP-62 = tested on: HOP-62
XF498 = tested on: XF498
NCI-H226 = tested on: NCI-H226
UO-31 = tested on: UO-31
HCT-116 = tested on: HCT-116
DLD-1 = tested on: DLD-1
SK-MEL-5 = tested on: SK-MEL-5
HOP-92 = tested on: HOP-92
SF-539 = tested on: SF-539
LXFL 529 = tested on: LXFL 529
DMS-114 = tested on: DMS-114
SNB-19 = tested on: SNB-19
DMS-273 = tested on: DMS-273
K562 = tested on: K562
HCC 2998 = tested on: HCC 2998
786-0 = tested on: 786-0
SF-268 = tested on: SF-268
KM-20L2 = tested on: KM-20L2
M14 = tested on: M14
SW-620 = tested on: SW-620
SK-MEL-2 = tested on: SK-MEL-2
CCRF-CEM = tested on: CCRF-CEM
COLO 205 = tested on: COLO 205
HCT-15 = tested on: HCT-15
NCI-H23 = tested on: NCI-H23
NCI-H522 = tested on: NCI-H522
RXF 393 = tested on: RXF 393
OVCAR-5 = tested on: OVCAR-5
OVCAR-3 = tested on: OVCAR-3
SF-295 = tested on: SF-295
ACHN = tested on: ACHN
OVCAR-8 = tested on: OVCAR-8
Malme-3M = tested on: Malme-3M
SNB-75 = tested on: SNB-75
U-251 = tested on: U-251
HL-60 = tested on: HL-60
RPMI-8226 = tested on: RPMI-8226
LOX IMVI = tested on: LOX IMVI
MOLT-4 = tested on: MOLT-4
SR = tested on: SR

Compound: O=c1[nH]c(C2CCCCC2)nc2c(Cl)cccc12
- GI50 (A498): > 100 µM (inactive)
- GI50 (NCI-H460): > 100 µM (inactive)
- GI50 (SN12C): > 100 µM (inactive)
- GI50 (A549): > 100 µM (inactive)
- GI50 (SK-MEL-28): > 100 µM (inactive)
- GI50 (TK-10): > 100 µM (inactive)
- GI50 (SK-OV-3): > 100 µM (inactive)
- GI50 (UACC-257): > 100 µM (inactive)
- GI50 (EKVX): 26.1 µM (inactive)
- GI50 (UACC-62): > 100 µM (inactive)
- GI50 (CAKI-1): > 100 µM (inactive)
- GI50 (HOP-18): > 100 µM (inactive)
- GI50 (M19-MEL): > 100 µM (inactive)
- GI50 (KM12): > 100 µM (inactive)
- GI50 (HT-29): > 100 µM (inactive)
- GI50 (OVCAR-4): > 100 µM (inactive)
- GI50 (IGROV-1): > 100 µM (inactive)
- GI50 (SNB-78): > 100 µM (inactive)
- GI50 (HOP-62): > 100 µM (inactive)
- GI50 (XF498): > 100 µM (inactive)
- GI50 (NCI-H226): > 100 µM (inactive)
- GI50 (UO-31): > 100 µM (inactive)
- GI50 (HCT-116): > 100 µM (inactive)
- GI50 (DLD-1): > 100 µM (inactive)
- GI50 (SK-MEL-5): > 100 µM (inactive)
- GI50 (HOP-92): > 100 µM (inactive)
- GI50 (SF-539): > 100 µM (inactive)
- GI50 (LXFL 529): > 100 µM (inactive)
- GI50 (DMS-114): > 100 µM (inactive)
- GI50 (SNB-19): > 100 µM (inactive)
- GI50 (DMS-273): > 100 µM (inactive)
- GI50 (K562): > 100 µM (inactive)
- GI50 (HCC 2998): > 100 µM (inactive)
- GI50 (786-0): > 100 µM (inactive)
- GI50 (SF-268): > 100 µM (inactive)
- GI50 (KM-20L2): > 100 µM (inactive)
- GI50 (M14): > 100 µM (inactive)
- GI50 (SW-620): > 100 µM (inactive)
- GI50 (SK-MEL-2): > 100 µM (inactive)
- GI50 (CCRF-CEM): > 100 µM (inactive)
- GI50 (COLO 205): > 100 µM (inactive)
- GI50 (HCT-15): > 100 µM
- GI50 (NCI-H23): > 100 µM (inactive)
- GI50 (NCI-H522): > 100 µM (inactive)
- GI50 (RXF 393): > 100 µM (inactive)
- GI50 (OVCAR-5): > 100 µM (inactive)
- GI50 (OVCAR-3): > 100 µM (inactive)
- GI50 (SF-295): > 100 µM (inactive)
- GI50 (ACHN): > 100 µM (inactive)
- GI50 (OVCAR-8): > 100 µM (inactive)
- GI50 (Malme-3M): > 100 µM (inactive)
- GI50 (SNB-75): > 100 µM (inactive)
- GI50 (U-251): > 100 µM (inactive)
- GI50 (HL-60): > 100 µM (inactive)

Compound: O=C(Cc1c(C(=O)Nc2ccccc2)sc(C(=O)Nc2ccccc2)c1CC(=O)Nc1ccccc1)Nc1ccccc1
- GI50 (A498): > 100 µM (inactive)
- GI50 (NCI-H460): > 100 µM (inactive)
- GI50 (SN12C): > 100 µM (inactive)
- GI50 (RPMI-8226): > 100 µM (inactive)
- GI50 (A549): > 100 µM (inactive)
- GI50 (SK-MEL-28): 0.719 µM (active)
- GI50 (TK-10): > 100 µM (inactive)
- GI50 (SK-OV-3): > 100 µM (inactive)
- GI50 (UACC-257): > 100 µM (inactive)
- GI50 (EKVX): > 100 µM (inactive)
- GI50 (UACC-62): > 100 µM (inactive)
- GI50 (CAKI-1): > 100 µM (inactive)
- GI50 (HOP-18): 68.9 µM (inactive)
- GI50 (M19-MEL): > 100 µM (inactive)
- GI50 (KM12): > 100 µM (inactive)
- GI50 (HT-29): > 100 µM (inactive)
- GI50 (OVCAR-4): > 100 µM (inactive)
- GI50 (IGROV-1): > 100 µM (inactive)
- GI50 (SNB-78): > 100 µM (inactive)
- GI50 (HOP-62): > 100 µM (inactive)
- GI50 (XF498): > 100 µM (inactive)
- GI50 (NCI-H226): > 100 µM (inactive)
- GI50 (UO-31): > 100 µM (inactive)
- GI50 (HCT-116): > 100 µM (inactive)
- GI50 (DLD-1): > 100 µM (inactive)
- GI50 (SK-MEL-5): > 100 µM (inactive)
- GI50 (HOP-92): > 100 µM (inactive)
- GI50 (SF-539): > 100 µM (inactive)
- GI50 (LXFL 529): > 100 µM (inactive)
- GI50 (DMS-114): > 100 µM (inactive)
- GI50 (SNB-19): > 100 µM (inactive)
- GI50 (DMS-273): > 100 µM (inactive)
- GI50 (K562): > 100 µM (inactive)
- GI50 (HCC 2998): > 100 µM (inactive)
- GI50 (786-0): > 100 µM (inactive)
- GI50 (SF-268): 0.446 µM (active)
- GI50 (KM-20L2): > 100 µM (inactive)
- GI50 (M14): > 100 µM (inactive)
- GI50 (SW-620): > 100 µM (inactive)
- GI50 (CCRF-CEM): > 100 µM (inactive)
- GI50 (COLO 205): > 100 µM (inactive)
- GI50 (NCI-H23): > 100 µM (inactive)
- GI50 (NCI-H522): > 100 µM (inactive)
- GI50 (RXF 393): > 100 µM (inactive)
- GI50 (OVCAR-5): > 100 µM (inactive)
- GI50 (OVCAR-3): > 100 µM (inactive)
- GI50 (SF-295): > 100 µM (inactive)
- GI50 (ACHN): > 100 µM (inactive)
- GI50 (OVCAR-8): > 100 µM (inactive)
- GI50 (Malme-3M): > 100 µM (inactive)
- GI50 (SNB-75): > 100 µM (inactive)
- GI50 (LOX IMVI): > 100 µM (inactive)
- GI50 (U-251): > 100 µM (inactive)
- GI50 (HL-60): > 100 µM (inactive)

Compound: CC(C)(C)/N=N/C(C)(C)N=C=O
- GI50 (A498): > 100 µM (inactive)
- GI50 (NCI-H460): > 100 µM (inactive)
- GI50 (SN12C): > 100 µM (inactive)
- GI50 (RPMI-8226): > 100 µM (inactive)
- GI50 (A549): > 100 µM (inactive)
- GI50 (SK-MEL-28): > 100 µM (inactive)
- GI50 (TK-10): > 100 µM (inactive)
- GI50 (SK-OV-3): > 100 µM (inactive)
- GI50 (UACC-257): > 100 µM (inactive)
- GI50 (EKVX): 99.8 µM (inactive)
- GI50 (UACC-62): > 100 µM (inactive)
- GI50 (CAKI-1): > 100 µM (inactive)
- GI50 (HOP-18): > 100 µM (inactive)
- GI50 (M19-MEL): > 100 µM (inactive)
- GI50 (KM12): > 100 µM (inactive)
- GI50 (HT-29): > 100 µM (inactive)
- GI50 (OVCAR-4): > 100 µM (inactive)
- GI50 (IGROV-1): > 100 µM (inactive)
- GI50 (SNB-78): > 100 µM (inactive)
- GI50 (HOP-62): > 100 µM (inactive)
- GI50 (XF498): > 100 µM (inactive)
- GI50 (NCI-H226): > 100 µM (inactive)
- GI50 (UO-31): > 100 µM (inactive)
- GI50 (HCT-116): > 100 µM (inactive)
- GI50 (DLD-1): > 100 µM (inactive)
- GI50 (SK-MEL-5): > 100 µM (inactive)
- GI50 (HOP-92): > 100 µM (inactive)
- GI50 (SF-539): > 100 µM (inactive)
- GI50 (LXFL 529): > 100 µM (inactive)
- GI50 (DMS-114): > 100 µM (inactive)
- GI50 (SNB-19): > 100 µM (inactive)
- GI50 (DMS-273): > 100 µM (inactive)
- GI50 (K562): > 100 µM (inactive)
- GI50 (MOLT-4): > 100 µM (inactive)
- GI50 (786-0): > 100 µM (inactive)
- GI50 (SF-268): > 100 µM (inactive)
- GI50 (KM-20L2): > 100 µM (inactive)
- GI50 (M14): > 100 µM (inactive)
- GI50 (SW-620): > 100 µM (inactive)
- GI50 (SK-MEL-2): > 100 µM (inactive)
- GI50 (CCRF-CEM): > 100 µM (inactive)
- GI50 (COLO 205): > 100 µM (inactive)
- GI50 (HCT-15): > 100 µM
- GI50 (NCI-H23): > 100 µM (inactive)
- GI50 (NCI-H522): > 100 µM (inactive)
- GI50 (SR): > 100 µM (inactive)
- GI50 (RXF 393): > 100 µM (inactive)
- GI50 (OVCAR-5): > 100 µM (inactive)
- GI50 (OVCAR-3): > 100 µM (inactive)
- GI50 (SF-295): 60.1 µM (inactive)
- GI50 (ACHN): > 100 µM (inactive)
- GI50 (OVCAR-8): > 100 µM (inactive)
- GI50 (Malme-3M): > 100 µM (inactive)
- GI50 (SNB-75): > 100 µM (inactive)
- GI50 (LOX IMVI): > 100 µM (inactive)
- GI50 (U-251): > 100 µM (inactive)
- GI50 (HL-60): > 100 µM (inactive)
